According to patent US8299056B2 (Signal Pharmaceuticals, LLC, priority 2008, dated 2012):
Like-named read-outs stand apart in the source and are kept apart here.

Biological target: T1, Syk (Homo sapiens, UniProt P43405)
T1 construct: purchased Carna Biosciences
Assay: Syk HTRF assay
Assay type: biochemical
Summary of the method: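 HTRF kinase assay in HEPES pH 7.6 buffer with MgCl2, DTT and Triton X100; start mix of 87.5 μM ATP and 80 nM biotinylated peptide, 1 h at room temperature. EDTA stop, then Eu-anti-phosphotyrosine/streptavidin-DyLight 647 detection, read as 665/615 nm emission ratio.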

[1] = read-out: Activity Level (Syk HTRF assay IC50)
[2] = IC50 activity level, read-out: Activity Level
[3] = activity levels A-D, read-out: Activity Level (IC50 in the Syk HTRF assay)

| IC50 [1] [nM] | SMILES | also measured |
| --- | --- | --- |
| 250 to 500 | Nc1ccc(-c2cccc3nc(Nc4ccccc4)nn23)cc1 [compound 82, 5-(4-aminophenyl)-N-phenyl-[1,2,4]triazolo[1,5-a]pyridin-2-amine] |  |
| 0.005 to 250 | CN1C(=O)C(C)(C)c2ccc(Nc3nc4cccc(N[C@H]5CC[C@](C)(O)CC5)n4n3)cc21 [compound 110] |  |
| 250 to 500 | c1ccc(Nc2nc3cccc(-c4cccc(-c5ncn[nH]5)c4)n3n2)cc1 [compound 62, 5-(3-(1H-1,2,4-triazol-5-yl)phenyl)-N-phenyl-[1,2,4]triazolo[1,5-a]pyridin-2-amine] |  |

Further lines, the compound ahead of its results:

| SMILES | IC50 [1] [nM] | also measured |
| --- | --- | --- |
| CC1(C)C(=O)Nc2cc(Nc3nc4cccc(C(O)C5CCOCC5)n4n3)ccc21 (stereo not shown) [Example 173, 6-(5-(hydroxy(tetrahydro-2H-pyran-4-yl)methyl)-[1,2,4]triazolo[1,5-a]pyridin-2-ylamino)-3,3-dimethylindolin-2-one] | 250 to 500 |  |
| CN1Cc2cc(Nc3nc4cccc(CC5CCOCC5)n4n3)ccc2C1=O [Example 145, 2-methyl-5-(5-((tetrahydro-2H-pyran-4-yl)methyl)-[1,2,4]triazolo[1,5-a]pyridin-2-ylamino)isoinoldin-1-one] | 500 to 1000 |  |
| Cn1ncc2cc(Nc3nc4cccc(N[C@H]5CC[C@@H](O)CC5)n4n3)cnc21 [Example 139, cis-4-(2-(1-methyl-1H-pyrazolo[3,4-b]pyridin-5-ylamino)-[1,2,4]triazolo[1,5-a]pyridin-5-ylamino)cyclohexanol] | 0.005 to 250 |  |
| NCCn1cnc2ccc(-c3cccc4nc(Nc5ccccc5)nn34)cc21 [Example 515, 5-(1-(2-aminoethyl)-1H-benzo[d]imidazol-6-yl)-N-phenyl-[1,2,4]triazolo[1,5-a]pyridin-2-amine] |  | IC50 [2]: 1000 to 10000 nM |
| CNC(=O)c1ccc(Nc2nc3cccc(CC4CCNCC4)n3n2)cc1 [Example 276] |  | IC50 [3]: 0.005 to 250 nM |
| FC(F)(F)c1ccc(Nc2nc3cccc(OC4CCCNC4)n3n2)cc1 (stereo in doubt) [Example 361, (R)-5-(piperidin-3-yloxy)-N-(4-(trifluoromethyl)phenyl)-[1,2,4]triazolo[1,5-a]pyridin-2-amine] |  | IC50 [3]: 1000 to 10000 nM |
| Cc1cc(Nc2nc3cccc(N[C@H]4CC[C@@H](O)CC4)n3n2)cc2[nH]ncc12 [Example 204, cis-4-(2-(4-methyl-1H-indazol-6-ylamino)-[1,2,4]triazolo[1,5-a]pyridin-5-ylamino)cyclohexanol] |  | IC50 [3]: 0.005 to 250 nM |
| CCc1n[nH]c2cc(Nc3nc4cccc(N[C@H]5CC[C@@H](O)CC5)n4n3)ccc12 [Example 245, cis-4-(2-(3-ethyl-1H-indazol-6-ylamino)-[1,2,4]triazolo[1,5-a]pyridin-5-ylamino)cyclohexanol] |  | IC50 [3]: 0.005 to 250 nM |
| NC(=O)c1cc(-c2cccc3nc(Nc4ccc(F)cc4)nn23)ccn1 [Example 416, 4-(2-(4-fluorophenylamino)-[1,2,4]triazolo[1,5-a]pyridin-5-yl)picolinamide] |  | IC50 [2]: 1000 to 10000 nM |
| CC1(C)C(=O)Nc2cc(Nc3nc4cccc(N[C@H]5CC[C@H](O)CC5)n4n3)ccc21 (stereo in doubt) [Example 175, trans-6-(5-(4-hydroxycyclohexylamino)-[1,2,4]triazolo[1,5-a]pyridin-2-ylamino)-3,3-dimethylindolin-2-one] | 0.005 to 250 |  |
| Cc1nnc2cc(Nc3nc4cccc(N[C@H]5CC[C@@H](O)CC5)n4n3)ccn12 [Example 568, cis-4-(2-(3-methyl-[1,2,4]triazolo[4,3-a]pyridin-7-ylamino)-[1,2,4]triazolo[1,5-a]pyridin-5-ylamino)cyclohexanol] |  | IC50 [2]: 0.005 to 250 nM |
| COCc1nc2ccc(Nc3nc4cccc(N[C@H]5CC[C@@H](O)CC5)n4n3)cc2[nH]1 [Example 196, cis-4-(2-(2-(methoxymethyl)-1H-benzo[d]imidazol-6-ylamino)-[1,2,4]triazolo[1,5-a]pyridin-5-ylamino)cyclohexyl] | 0.005 to 250 |  |
| c1ccc(Nc2nc3cccc(N[C@@H]4CCNC4)n3n2)cc1 [Example 474, (R)-N^2-phenyl-N^5-(pyrrolidin-3-yl)-[1,2,4]triazolo[1,5-a]pyridin-2,5-diamine] |  | IC50 [2]: 500 to 1000 nM |
